Patent US20100113523A1 (priority 2008, published 2010)

Tests used:
[1] = Pharmacokinetic analysis in humans (serum and urine, DART TOF-MS); type: in vivo; settings: human, ingested in a mixture
Protocol: Five healthy consenting female adults ranging in age from 23 to 57 were took diets free of flavonoids and any NSAIDs. A certified individual collected blood samples at several time intervals between 0 and 480 min after compounds of the present invention were ingested in a mixture. Immediately after the time zero blood samples were collected, a single 100 mg dose of the composition was administered as a lozenge. Blood samples were handled with approved protocols and precautions, centrifuged to remove cells and the serum fraction was collected and frozen. Blood was not treated with heparin to avoid any analytical interference. Urine samples were collected from the same five subjects on a time course (0 to 8 h).
The cells were removed from the blood samples by centrifugation and the serum was collected. Serum samples were prepared for DART TOF-MS analysis by extraction with an equal volume of neat ethanol (USP) to minimize background of proteins, peptides, and polysaccharides present in serum. The ethanol extract was centrifuged for 10 min at 4° C., the supernatant was removed, concentrated to 200 μL volume, and 50 μL of an internal standard was added. Urine samples were not treated and used directly for DART TOF-MS. DART TOF-MS analyses were conducted as described above.

[2] = target: T1, tryptase enzyme (Homo sapiens, UniProt P20231); experiment: Tryptase inhibition (cleavage of tosyl-gly-pro-lys-pNA, absorbance at 405 nm); type: biochemical; settings: relative to controls; 2 h at 37° C.
T1 construct: purchased Millipore Inc., Westbury, Mass
T1 sequence (P20231 31-275): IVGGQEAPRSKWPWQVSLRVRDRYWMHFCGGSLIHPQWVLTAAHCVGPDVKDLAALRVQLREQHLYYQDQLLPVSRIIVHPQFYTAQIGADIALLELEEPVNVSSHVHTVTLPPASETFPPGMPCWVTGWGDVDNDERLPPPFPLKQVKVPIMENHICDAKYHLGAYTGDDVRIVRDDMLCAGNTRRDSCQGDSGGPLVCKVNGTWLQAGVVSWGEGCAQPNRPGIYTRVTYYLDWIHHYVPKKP
Protocol: Tryptase activity was determined by monitoring the production of chromophore p-nitroaniline (pNA) generated by the cleavage of tosyl-gly-pro-lys-pNA by the tryptase enzyme according to the manufacturer's protocol (Millipore Inc., Westbury, Mass.). In a 96-well format, 10 μL of tryptase was added to 10 μL of sample, followed by 20 μL of tosyl-gly-pro-lys-pNA and 160 μL of 1× reaction buffer and incubated for 2 h at 37° C. After the incubation, absorbance at 405 nm was measured in each well using a Tecan M200 microplate reader.

Structure (SMILES)	time to appearance in the bloodstream (serum) after ingestion ([1]; single 100 mg lozenge)	time to appearance in urine after ingestion ([1]; single 100 mg lozenge)	time present in the serum post-ingestion ([1]; single 100 mg lozenge, sampling 0 to 480 min)	persistence in the urine post-ingestion ([1]; urine collected 0 to 8 h)	IC50 [2]
CCCCCC/C=C/CN(c1ccc(C)cc1)c1ccc(S)cn1 [compound (V)]	≤ 10 min	≤ 1 h	up to 480 min	up to 8 h	
CCCCCC/C=C/CN(c1ccc(C)cc1)c1ccc(SSc2ccc(N(C/C=C/CCCCCC)c3ccc(C)cc3)nc2)cn1 [compound [7]]					789 µM
